The values below come from patent publication US20070191324A1, “Methods for treatment or prophylaxis of aldosterone-mediated pathogenic effects in a subject using an epoxy-steroidal aldosterone antagonist” (priority 1999, published 2007).

Read-outs that look alike come from different tables or passages of the source.

Data set [1] relates to captopril-treated saline-drinking SHRSP. Briefly: Angiotensin II-induced renal damage in captopril-treated saline-drinking SHRSP, Protocol 2 (Example A-8). The class given is in vivo, rat (SHRSP/A3N). As for the experimental part: Animals. Studies were conducted in accordance with institutional guidelines using male SHRSP/A3N (generations F-75 to F-78), n=37, from our local colony. These animals were bred from NIH stock, derived from the SHRSP/A3N substrain described originally by Okamoto and coworkers (Okamoto K et al. Circ. Res. 34 and 35 (suppl I):I-143-I-153.). All animals were housed in a room maintained on a 12:12-h light:dark-cycle and an ambient temperature of 22±1° C. in the Animal Care Facility at New York Medical College. Rats were weaned at 4 weeks of age and allowed free access to Purina Lab Chow 5001 (Ralston Purina, St. Louis, Mo.) and tap water until the initiation of experimental protocols.
SHRSP were placed on Stroke-Prone Rodent Diet (#39-288, Zeigler Bros Inc., Gardners, Pa.) and 1% NaCl drinking solution ad libitum starting at 8.3 weeks of age. […] Animals were handled and weighed daily. Urine samples were collected for the assessment of proteinuria. Systolic blood pressure and heart rate were measured each week. After 2 weeks of treatment, animals were decapitated, trunk blood was collected into chilled EDTA tubes, and the kidneys were removed, blotted dry, and immediately weighed. Coronal sections of kidney were fixed and later processed for light microscopic evaluation.
Assays and Analyses. Systolic blood pressure and heart rate of awake animals were measured by tail-cuff plethysmography using a Natsume KN-210 manometer and tachometer (Peninsula Laboratories Inc., Belmont, Calif.). Rats were warmed at 37° C. for 10 min and allowed to rest quietly in a Lucite chamber before measurement of blood pressure. Measurements of urine volume were made gravimetrically. Urinary protein concentration was determined by the sulfosalicylic acid turbidity method. Plasma aldosterone was measured by radioimmunoassay using ^125I-aldosterone as a tracer (Coat-a Count Aldosterone, Diagnostic Products Co., Los Angeles, Calif.).
Histology. Kidneys were preserved in 10% phosphate-buffered formalin. Coronal sections (2-3 μm) were stained with hematoxylin and eosin and examined by light microscopy in a blinded fashion as previously described (Stier C T et al. J Pharmacol Exp Ther (1992) 260:1410-1415). Glomerular damage was categorized as ischemic or thrombotic. Ischemic lesions were defined as retraction of glomerular capillary tufts with or without appreciable mesangiolysis. Glomerular thrombotic lesions were defined as any one of a combination of the following: segmental to global fibrinoid necrosis, focal thrombosis of glomerular capillaries, swelling and proliferation of intracapillary (endothelial and mesangial) and/or extracapillary cells (crescents), and expansion of reticulated mesangial matrix with or without significant hypercellularity. […] Vascular thrombotic lesions were defined as any one or a combination of the following: mural fibrinoid necrosis, extravasation and fragmentation of red blood cells, and luminal and/or mural thrombosis. Proliferative arteriopathy was characterized by proliferation of markedly swollen myointimal cells with swollen round to ovoid vesicular nuclei surrounded by mucinous extracellular matrix (“onion skinning”) often resulting in nodular thickening. Vascular damage was expressed as the number of arteries and arterioles with lesions per 100 glomeruli. The presence of casts and tubular (ischemic) retraction and simplification was assessed semiquantitatively.
Statistical Analysis. Significant effects with respect to treatment and time were determined by two-way analysis of variance. Data with only one grouping variable were analyzed statistically by Student's unpaired t tests. When more than two groups were compared, one-way analysis of variance was performed followed by the post-hoc Newman-Keul's multiple comparison test. Data were analyzed using version 2.01 of the GraphPad Prism statistical software package (GraphPad Software Inc., San Diego, Calif.). P<0.05 was considered statistically significant.

Data set [2] concerns patients with low-renin hypertension. Nature of the data set: Eplerenone versus losartan in low-renin hypertension, 16 weeks (Examples A-16, D-5). It counts as in vivo, human. From the text: Patients will continue on therapy until Week 16. Table […] illustrates the above-described dosing scheme. […] Plasma renin will be determined at screening; serum aldosterone, plasma renin, and plasma cortisol will be determined at Weeks 0, 8, and 16. […] A 12-lead electrocardiogram will be done at Weeks 0 and 16. Physical examinations will be completed at screening and at Week 16. […] Secondary measures of efficacy will be the following: […] Study design is illustrated in FIG. D-16. […] At Weeks 8 and 16, BP, RAAS hormone profile, and safety were assessed.

For data set [3], the system named is black and white patients with mild-to-moderate hypertension. As to conditions: for Active Renin (% change) / ΔDBP / ΔSBP: baseline to Week 16.
Where [4] appears, read: captopril 50 mg/kg/d, angiotensin II 25 ng/min, eplerenone 100 mg/kg/d, 2 weeks.
Where [5] appears, read: Week 8 (monotherapy), EPL 100-200 mg QD, LOS 50-100 mg QD.
Setting [6] is: Week 16, after allowed addition of HCTZ.

On to `C[C@H](CS)C(=O)N1CCC[C@H]1C(=O)O` [Captopril], for which, in data set [1] (setting [4]), the “Glomerular damage, Total” value was found to be 0 ± 0 lesions/100 glomeruli; the “Renal arteriopathy, Proliferative” value is on record as 0 ± 0 lesions/100 glomeruli; the “Renal arteriopathy, Thrombotic” value is given as 0 ± 0 lesions/100 glomeruli; the “Renal arteriopathy, Total” value is reported as 0 ± 0 lesions/100 glomeruli. Further, in data set [1] (setting [4]), the plasma aldosterone concentration was 107 ± 26 pg/mL; the “tubules with ischemic retraction and simplification” value is listed as “absent”.
On to `CCCCc1nc(Cl)c(CO)n1Cc1ccc(-c2ccccc2-c2nn[nH]n2)cc1` [Losartan, reference compound], for which the “cumulative percentage of patients requiring HCTZ add-on therapy” value in data set [2] (16 weeks) is 55.6%. Moreover, in data set [2] (Week 8), the “increase in active renin levels” value was “+63.8%” and the “increase in serum aldosterone levels” value is −18.7%. In data set [2] (setting [5]), the “mean change from baseline in DBP” value is −6.7 mmHg and the “mean change from baseline in SBP” value is reported as −10.1 mmHg. In addition, in data set [2] (Week 16), the “increase in active renin levels” value is listed as “+83.3%” and the “increase in serum aldosterone levels” value is recorded as −5.5%. In data set [2] (setting [6]), the “mean change from baseline in DBP” value is on record as −9.8 mmHg and the “mean change from baseline in SBP” value is −15.0 mmHg. Further, in data set [3] (All Patients), the “Active Renin (% change)” value is “+67.1%”, the ΔDBP is reported as −6.9 mmHg and the ΔSBP was −6.3 mmHg. Also, in data set [3] (Black Patients), the “Active Renin (% change)” value was “+40.0%”, the ΔDBP was −6.0 mmHg and the ΔSBP is recorded as −5.3 mmHg. Also, the “adjusted mean percent change from baseline in UACR” value in data set [3] (Week 16, EPL 50-200 mg QD, LOS 50-100 mg QD) was −18.2%. Moreover, in data set [3] (White Patients), the “Active Renin (% change)” value was “+113.7%” and the ΔDBP was −8.4 mmHg. The safety and tolerability entry in data set [3] (human, in vivo) was “safe and well-tolerated”.
As for “Angiotensin II: Angiotensin II (human type) infused by osmotic minipump (DRVYIHPF; Angiotensin-2; UniProt P01019 25-32, looked up)”, in data set [1] (setting [4]), the “Glomerular damage, Ischemic” value is on record as 13 ± 3 lesions/100 glomeruli; the “Glomerular damage, Thrombotic” value is reported as 2 ± 1 lesions/100 glomeruli; the “Glomerular damage, Total” value worked out at 15 ± 3 lesions/100 glomeruli; the “Renal arteriopathy, Proliferative” value turned out to be 1 ± 1 lesions/100 glomeruli. In data set [1] (setting [4]), the “Renal arteriopathy, Thrombotic” value worked out at 15 lesions/100 glomeruli; the “Renal arteriopathy, Total” value is listed as 16 ± 2 lesions/100 glomeruli; the plasma aldosterone concentration stood at 404 ± 160 pg/mL. In data set [1] (captopril + angiotensin II 25 ng/min, with eplerenone 100 mg/kg/d or vehicle), the renal damage is on record as 18±4%. The “proteinuria (urinary protein excretion)” value in data set [1] (end of study (2 weeks), captopril 50 mg/kg/d, angiotensin II 25 ng/min s.c., eplerenone 100 mg/kg/d by gavage) is 96 ± 13 mg/day.
